Laboratory results: ChEMBL document CHEMBL1141065, “Inhibition of mandelate racemase by the substrate-intermediate-product analogue 1,1-diphenyl-1-hydroxymethylphosphonate” (Bioorg Med Chem Lett, 2005)
pKi: −log10 of the molar value.

Key:
[1] = biological target: T1, Mandelate racemase (Pseudomonas putida, UniProt P11444); assay: Inhibitory activity against Mandelate racemase at pH 8.7 at 25 degree C
T1 sequence (P11444 whole entry): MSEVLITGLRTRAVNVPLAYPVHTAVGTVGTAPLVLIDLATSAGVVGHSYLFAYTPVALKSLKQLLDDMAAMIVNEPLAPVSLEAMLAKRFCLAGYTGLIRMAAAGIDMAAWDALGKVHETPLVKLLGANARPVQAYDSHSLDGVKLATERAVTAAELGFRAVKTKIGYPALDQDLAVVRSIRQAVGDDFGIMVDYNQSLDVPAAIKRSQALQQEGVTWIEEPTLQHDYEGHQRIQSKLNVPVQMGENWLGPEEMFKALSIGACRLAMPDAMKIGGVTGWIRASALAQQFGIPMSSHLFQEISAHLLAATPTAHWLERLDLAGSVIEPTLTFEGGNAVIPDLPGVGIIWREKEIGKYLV

[2] = biological target: T1, Mandelate racemase; assay: Inhibitory activity against Mandelate racemase at pH 7.5 at 25 degree C
[3] = biological target: T1, Mandelate racemase; assay: Inhibitory activity against Mandelate racemase at pH 6.3 at 25 degree C

O=P(O)(O)C(O)(c1ccccc1)c1ccccc1
pKi [1]: 2.16
pKi [2]: 2.85
pKi [3]: 2.23
